# Results reported in the Kinase Knowledgebase extract (Sharma et al. 2016).
# pIC50: −log10 of the molar value.
# Target: EGFR (UniProt P00533)
# Conditions: not given
# Sequence of EGFR (P00533 whole entry, looked up): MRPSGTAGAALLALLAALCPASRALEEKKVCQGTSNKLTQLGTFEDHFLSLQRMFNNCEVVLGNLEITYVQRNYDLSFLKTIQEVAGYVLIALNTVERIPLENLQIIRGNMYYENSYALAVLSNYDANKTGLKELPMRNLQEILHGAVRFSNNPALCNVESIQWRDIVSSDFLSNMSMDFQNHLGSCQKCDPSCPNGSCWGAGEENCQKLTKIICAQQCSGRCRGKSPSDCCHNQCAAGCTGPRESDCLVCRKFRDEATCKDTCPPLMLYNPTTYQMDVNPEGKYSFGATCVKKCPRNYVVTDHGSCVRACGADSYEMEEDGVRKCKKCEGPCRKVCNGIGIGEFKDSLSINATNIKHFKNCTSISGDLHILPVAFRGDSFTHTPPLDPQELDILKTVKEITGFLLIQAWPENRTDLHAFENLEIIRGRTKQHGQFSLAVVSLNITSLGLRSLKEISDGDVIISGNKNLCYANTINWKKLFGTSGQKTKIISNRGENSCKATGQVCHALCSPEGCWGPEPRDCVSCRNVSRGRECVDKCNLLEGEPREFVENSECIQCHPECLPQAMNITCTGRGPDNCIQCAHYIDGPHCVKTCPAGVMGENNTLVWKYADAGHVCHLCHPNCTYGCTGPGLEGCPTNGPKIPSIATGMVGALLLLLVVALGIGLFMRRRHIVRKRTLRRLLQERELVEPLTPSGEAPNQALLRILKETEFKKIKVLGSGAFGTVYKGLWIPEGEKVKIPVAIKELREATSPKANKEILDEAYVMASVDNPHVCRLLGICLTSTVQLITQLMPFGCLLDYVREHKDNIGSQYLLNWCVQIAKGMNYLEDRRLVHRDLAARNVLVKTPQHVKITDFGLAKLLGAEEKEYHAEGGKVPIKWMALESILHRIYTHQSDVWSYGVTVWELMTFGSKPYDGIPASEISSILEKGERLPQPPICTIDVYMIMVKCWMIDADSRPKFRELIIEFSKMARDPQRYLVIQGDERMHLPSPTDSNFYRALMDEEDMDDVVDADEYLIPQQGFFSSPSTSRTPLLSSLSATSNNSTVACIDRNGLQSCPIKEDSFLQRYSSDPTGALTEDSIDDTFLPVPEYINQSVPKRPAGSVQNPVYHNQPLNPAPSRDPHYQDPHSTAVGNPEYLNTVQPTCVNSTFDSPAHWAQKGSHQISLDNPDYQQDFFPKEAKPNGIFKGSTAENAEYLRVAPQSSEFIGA
row,pIC50,SMILES
1,7.39,COc1cc2c(Nc3cccc(Cl)c3F)ncnc2cc1O[C@@H]1CCN(C(=O)C2CCC(=O)N2)C1 (stereo partly drawn)

# Target: EGFR (human) (UniProt P00533)
# Conditions: kb epidermoid nasopharynx
# Sequence of EGFR (human) (P00533 whole entry, looked up): as above
row,SMILES,pIC50
1,COc1cc2ncnc(Nc3ccc(F)c(Cl)c3)c2cc1CN1CCC[C@@H]1C(=O)NCC#N,6.84
2,COc1cc2c(Nc3cccc(Cl)c3F)ncnc2cc1O[C@@H]1CCN(C(=O)C2CCC(=O)N2)C1 (stereo partly drawn),6.40
3,COCC(=O)N1CC[C@@H](Oc2cc3ncnc(Nc4cccc(Cl)c4F)c3cc2OC)C1,6.92
4,COc1cc2c(Nc3cccc(Cl)c3F)ncnc2cc1OC1CCN(C(=O)CCO)CC1,6.96
5,COCCN1CCN(Cc2cc3c(Nc4cccc(Cl)c4F)ncnc3cc2OC)C(C(N)=O)C1 (stereo not drawn),6.80
6,COCCOCC(=O)N1CCC(Oc2cc3ncnc(Nc4cccc(Cl)c4F)c3cc2OC)CC1,6.95

# The next compounds have a higher pIC50 than those just listed; values first:
row,pIC50,SMILES
1,7.08,COCCC(=O)N1CCC(Oc2cc3ncnc(Nc4cccc(Cl)c4F)c3cc2OC)CC1
2,7.15,COc1cc2c(Nc3cccc(Cl)c3F)ncnc2cc1OC1CN(C(=O)[C@H](C)O)C1
3,7.26,COCC(=O)N1CCC(Oc2cc3ncnc(Nc4cccc(Cl)c4F)c3cc2OC)CC1
4,7.30,COc1cc2ncnc(Nc3cccc(Cl)c3F)c2cc1CN1CSC[C@H]1C(N)=O
5,7.32,COc1cc2c(Nc3cccc(Cl)c3F)ncnc2cc1OC1CN(C(=O)[C@@H](C)O)C1
6,7.43,COc1cc2c(Nc3cccc(Cl)c3F)ncnc2cc1OC1CCN(C(=O)CO)CC1
